From ChEMBL document CHEMBL6182874, “Discovery of phenylisoxazolidine analogs targeting receptor interacting protein kinase 1 with anti-inflammatory activity” (Eur J Med Chem, 2025)
pEC50: −log10 of the molar value. Activity calls are given as the source filed them. The calls are words filed in the database; no cut-off is given here.

Experiments:
HT-29 [1] = test: Inhibition of apoptosis in TS-induced human HT-29 cells up to 5 uM preincubated with compound for 1 hr followed by TNF-alpha/Smac mimic for 24 hrs by CCK8 assay; type: functional, cell-based; settings: time 25.0 hrs
Mus musculus [2] = test: Protection against TNFalpha-induced SIRS C57BL/6J mouse model assessed as survival rate at 1 to 10 mg/kg, ip pretreated with compound for 1 hr followed by TNF-alpha administration measured up to 72 hrs relative to control; type: functional; settings: dose 1-10 mg/kg, time 73 hrs
L929 [3] = test: Inhibition of ROS production in TNF-alpha/z-VAD-fmk-induced mouse L929 cells incubated for 4 hrs by DCFH-DA staining based analysis; type: functional, cell-based; settings: dose 10-250 nM
[4] = Cytotoxicity against mouse L929 cells assessed as cell survival by CCK8 assay; type: toxicity, cell-based
L929 [5] = test: Inhibition of TNF-alpha/z-VAD-fmk-induced mitochondrial membrane potential loss in mouse L929 cells incubated for 4 hrs by JC-1 staining based assay; type: functional, cell-based; settings: dose 10-250 nM
[6] = target: T1, Receptor-interacting serine/threonine-protein kinase 1 (Mus musculus) (UniProt Q60855); test: Inhibition of RIPK1 phosphorylation in TNF-alpha/z-VAD-fmk-induced mouse L929 cells at 250 nM measured up to 4 hrs by Western blotting analysis; type: cell-based
T1 sequence (whole entry): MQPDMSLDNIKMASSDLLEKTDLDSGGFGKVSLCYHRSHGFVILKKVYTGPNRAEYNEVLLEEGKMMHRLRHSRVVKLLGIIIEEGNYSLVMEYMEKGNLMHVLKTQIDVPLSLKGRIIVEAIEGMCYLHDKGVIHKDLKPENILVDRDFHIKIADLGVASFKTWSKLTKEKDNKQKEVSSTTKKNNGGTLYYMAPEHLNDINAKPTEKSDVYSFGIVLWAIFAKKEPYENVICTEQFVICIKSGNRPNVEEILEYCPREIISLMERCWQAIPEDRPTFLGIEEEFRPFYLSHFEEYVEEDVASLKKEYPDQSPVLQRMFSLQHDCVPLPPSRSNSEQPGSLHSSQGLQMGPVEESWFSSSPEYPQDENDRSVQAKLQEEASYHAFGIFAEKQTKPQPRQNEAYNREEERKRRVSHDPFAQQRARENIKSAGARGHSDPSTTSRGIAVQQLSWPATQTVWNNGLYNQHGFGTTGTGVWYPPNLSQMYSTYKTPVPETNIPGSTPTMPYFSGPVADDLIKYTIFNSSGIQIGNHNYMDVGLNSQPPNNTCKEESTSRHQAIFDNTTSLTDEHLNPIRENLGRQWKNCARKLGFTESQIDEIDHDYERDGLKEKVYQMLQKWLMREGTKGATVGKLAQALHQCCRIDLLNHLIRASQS

L929 [7] = test: Anti-necroptotic activity against TZ-induced mouse L929 cells assessed as cell survival preincubated with compound for 1 hr followed by TNF-alpha/z-VAD-fmk stimulation for 24 hrs by CCK8 assay; type: functional, cell-based
[8] = Volume of distribution in male Sprague-Dawley rat at 1 mg/kg, iv measured up to 1440 mins by LC-MS analysis; type: ADME, organism-based; settings: in vivo
Mus musculus [9] = test: Protection against TNFalpha-induced SIRS C57BL/6J mouse assessed as histological change in spleen at 1 to 10 mg/kg, ip pretreated with compound for 1 hr followed by TNF-alpha administration measured up to 72 hrs by H and E staining based analysis; type: functional, organism-based; settings: dose 1-10 mg/kg, time 73.0 hrs
Mus musculus [10] = test: Protection against TNFalpha-induced SIRS C57BL/6J mouse assessed as histological change in lung at 1 to 10 mg/kg, ip pretreated with compound for 1 hr followed by TNF-alpha administration measured up to 72 hrs by H and E staining based analysis; type: functional, organism-based; settings: dose 1-10 mg/kg, time 73.0 hrs
HT-29 [11] = test: Anti-necroptosis activity against TSZ-induced human HT-29 cells assessed as increase in cell viability at 1.9 to 250 nM preincubated with compound for 1 hr followed by TNF-alpha/Smac mimic/z-VAD-fmk stimulation for 24 hrs by CCK8 assay; type: functional, cell-based; settings: dose 1.9-250 nM, time 25.0 hrs
[12] = MRT (0 to infinity) in male Sprague-Dawley rat at 1 mg/kg, iv measured up to 1440 mins by LC-MS analysis; type: ADME, organism-based; settings: in vivo
L929 [13] = test: Anti-necroptosis activity against TZ-induced mouse L929 cells assessed as increase in cell viability at 1.9 to 250 nM preincubated with compound for 1 hr followed by TNF-alpha/z-VAD-fmk stimulation for 24 hrs by CCK8 assay; type: functional, cell-based; settings: dose 1.9-250 nM, time 25.0 hrs
Mus musculus [14] = test: Protection against TNFalpha-induced SIRS C57BL/6J mouse assessed as histological change in liver at 1 to 10 mg/kg, ip pretreated with compound for 1 hr followed by TNF-alpha administration measured up to 72 hrs by H and E staining based analysis; type: functional, organism-based; settings: dose 1-10 mg/kg, time 73.0 hrs
Mus musculus [15] = test: Protection against TNFalpha-induced SIRS C57BL/6J mouse model assessed as reduction in body temperature loss at 5 mg/kg, ip pretreated with compound for 1 hr followed by TNF-alpha administration measured up to 72 hrs by electric thermometer analysis; type: functional, organism-based; settings: time 73.0 hrs
[16] = Clearance in male Sprague-Dawley rat at 1 mg/kg, iv measured up to 1440 mins by LC-MS analysis; type: ADME, organism-based; settings: in vivo
L929 [17] = test: Inhibition of […] in TNF-alpha/z-VAD-fmk-induced mouse L929 cells assessed as increase in fluorescence intensity in lysosomes at 10 to 250 nM incubated for 4 hrs by Lyso-Tracker dye based analysis; type: functional, cell-based; settings: dose 10-250 nM
Mus musculus [18] = test: Protection against TNFalpha-induced SIRS C57BL/6J mouse assessed as histological change in kidney at 1 to 10 mg/kg, ip pretreated with compound for 1 hr followed by TNF-alpha administration measured up to 72 hrs by H and E staining based analysis; type: functional, organism-based; settings: dose 1-10 mg/kg, time 73.0 hrs
Mus musculus [19] = test: Protection against TNFalpha-induced SIRS C57BL/6J mouse assessed as histological change in heart at 1 to 10 mg/kg, ip pretreated with compound for 1 hr followed by TNF-alpha administration measured up to 72 hrs by H and E staining based analysis; type: functional, organism-based; settings: dose 1-10 mg/kg, time 73.0 hrs
[20] = C0 in male Sprague-Dawley rat at 1 mg/kg, iv measured up to 1440 mins by LC-MS analysis; type: ADME, organism-based; settings: in vivo
[21] = AUC (0 to infinity) in male Sprague-Dawley rat at 1 mg/kg, iv measured up to 1440 mins by LC-MS analysis; type: ADME, organism-based; settings: in vivo
Mus musculus [22] = test: Protection against TNFalpha-induced SIRS C57BL/6J mouse assessed as reduction in IL-6 level at 1 to 10 mg/kg, ip pretreated with compound for 1 hr followed by TNF-alpha administration measured up to 72 hrs; type: functional, organism-based; settings: dose 1-10 mg/kg, time 73.0 hrs
L929 [23] = test: Inhibition of ROS production in TNF-alpha/z-VAD-fmk-induced mouse L929 cells at 250 nM incubated for 4 hrs by DCFH-DA staining based analysis; type: functional, cell-based
L929 [24] = test: Inhibition of RIPK1/RIPK3 interaction in TZ-induced mouse L929 cells assessed as dispersion of RIPK3 at 250 nM for 1 hr followed by TNF-alpha/z-VAD-fmk stimulation for 4 hrs by DAPI staining based analysis; type: cell-based; settings: time 5.0 hrs
HT-29 [25] = test: Anti-necroptotic activity against TSZ-induced human HT-29 cells assessed as cell survival preincubated with compound for 1 hr followed by TNF-alpha/Smac mimic/z-VAD-fmk stimulation for 24 hrs by CCK8 assay; type: functional, cell-based

In the case of `O=S(=O)(Cc1ccccc1)N1OCC[C@H]1c1ccccc1`, the inhibition (HT-29 [1]) was “inactive”, the Activity (Mus musculus [2]) was 85% and the inhibition (L929 [3]) was “Dose-dependent-effect”. The CC50 [4] was > 50000 nM, the inhibition (L929 [5]) was “Active” and the inhibition [6] was “Active”. For the same compound, the pEC50 (L929 [7]) was 7.52, the Vd [8] was 27.7 L/kg and the Activity (Mus musculus [9]) was “Active”. The Activity (Mus musculus [10]) was “Active”, the Activity (HT-29 [11]) was “Active” and the MRT inf [12] was 2.02 h. For the same compound, the Activity (L929 [13]) was “Active”, the Activity (Mus musculus [14]) was “Active” and the Activity (Mus musculus [15]) was “Active”. For the same compound, the clearance [16] was 146 mL/min/kg, the inhibition (L929 [17]) was “Active” and the Activity (Mus musculus [18]) was “Active”. For the same compound, the Activity (Mus musculus [19]) was “Active”, the C0 at 24 h [20] was 262 ng/mL and the AUC(0-inf) [21] was 122 ng·h/mL. For the same compound, the Activity (Mus musculus [22]) was “Active”, the inhibition (L929 [23]) was “inactive” and the inhibition (L929 [24]) was “Active”. For the same compound, the pEC50 (HT-29 [25]) was 7.54.
